This data set in a line: recombinant barcode read abundance after kanamycin selection (control-corrected) (log10(CPM+1)); higher = more efficient recombination; sequences stand for … in AGTGCAGAGAAAATCGGCCAGTTTTCTCTGCCTGCAGTCCGCATGCCGT…AGATTTATGCAGCGGACTGCCTTTCTCCCAAAGTGATAAACCGGACAGTATCATGGACCGGTTTTCCCGGTAATCCGTATTTGCAAGGTTGGTTTCACT; site = the 11-nt target. The method, then:
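Pooled E. coli target-specificity screen for the IS621 bridge recombinase. Each library plasmid pairs an 11-nt target (CT core) with a bridge RNA whose target-binding loop (9-nt LTG + 4-nt RTG) is reprogrammed; the rest of the 177-nt WT IS621 bridge RNA scaffold is fixed. The plasmid is co-electroporated with a WT donor plasmid; recombinase is induced with 0.1 mM IPTG and recombinants are selected on kanamycin. Recombinant barcodes are sequenced, converted to CPM, averaged over two biological replicates and corrected by the unselected control CPM. Molecule = full bridge RNA written as DNA: LTG = specificity nt 1-9, RTG = reverse complement of specificity nt 8-11, in the WT scaffold.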
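Also: IS621 recombinase and bridge RNA in Escherichia coli cells.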

Regarding “AAATTTCCTTGGGTTCTAACCTGTTGCCT (site ATATTTCCTAG)”, the “recombinant barcode read abundance (log10)” value came to 0.123.

For “AACACGTCTTGGGTTCTAACCTGTTGCCT (site AAATCGTCTAG)”, the “recombinant barcode read abundance (log10)” value was 0.0544.

“AACACGTCTTGGGTTCTAACCTGTTGCCT (site AACACGTCTAG)”: the “recombinant barcode read abundance (log10)” value stood at 0.576.

“AACACTCCTTGGGTTCTAACCTGTTGCTT (site AACACTCCTAA)”: the “recombinant barcode read abundance (log10)” value is 0.0689.

As for “AACACTCCTTGGGTTCTAACCTGTTGCTT (site AAGACTCCTAA)”, the “recombinant barcode read abundance (log10)” value is 0.299.

Turning to “AACAGTTCTTGGGTTCTAACCTGTTGCCT (site AACAGCTCTAG)”, the “recombinant barcode read abundance (log10)” value stood at 0.151.

For the sequence “AACAGTTCTTGGGTTCTAACCTGTTGCCT (site AACAGTTCTAG)”, the “recombinant barcode read abundance (log10)” value was found to be 0.749.

Take “AACCGCCCTTGGGTTCTAACCTGTTGCGT (site AACCGCCCTAC)”: the “recombinant barcode read abundance (log10)” value amounted to 2.47.

On to “AACCGCCCTTGGGTTCTAACCTGTTGCGT (site AACCGCCCTAG)”, for which the “recombinant barcode read abundance (log10)” value amounted to 0.434.

As to “AACCTAGCTTGGGTTCTAACCTGTTGCTA (site AACCTAGCTTA)”, the “recombinant barcode read abundance (log10)” value is 0.395.

As to “AACCTAGCTTGGGTTCTAACCTGTTGCTA (site ACCCTAGCTGA)”, the “recombinant barcode read abundance (log10)” value was determined as 0.0657.

On to “AACGCTTCTTGGGTTCTAACCTGTTGCCT (site AACGCTTCTAG)”, for which the “recombinant barcode read abundance (log10)” value was 0.3.

In the case of “AACGCTTCTTGGGTTCTAACCTGTTGCCT (site ACCGCTTCTAG)”, the “recombinant barcode read abundance (log10)” value was determined as 0.215.

In the case of “AACGCTTCTTGGGTTCTAACCTGTTGCCT (site AGCGCTTCTAG)”, the “recombinant barcode read abundance (log10)” value turned out to be 0.0496.

Turning to “AACGCTTCTTGGGTTCTAACCTGTTGCCT (site ATCGCTTCTAG)”, the “recombinant barcode read abundance (log10)” value was 0.0246.

Regarding “AACGTACCTTGGGTTCTAACCTGTTGCCA (site AACGTACCTTG)”, the “recombinant barcode read abundance (log10)” value was 0.674.

Take “AACGTACCTTGGGTTCTAACCTGTTGCCA (site GGTAATACTAT)”: the “recombinant barcode read abundance (log10)” value is 0.0669.

Take “AACTCTCCTTGGGTTCTAACCTGTTGCAT (site AACTATCCTAT)”: the “recombinant barcode read abundance (log10)” value was found to be 0.11.

For “AACTCTCCTTGGGTTCTAACCTGTTGCAT (site AACTCTCCTAT)”, the “recombinant barcode read abundance (log10)” value came out at 0.588.

As to “AACTCTCCTTGGGTTCTAACCTGTTGCAT (site AACTGTCCTAT)”, the “recombinant barcode read abundance (log10)” value was determined as 0.188.

Turning to “AACTCTCCTTGGGTTCTAACCTGTTGCAT (site AACTTTCCTAT)”, the “recombinant barcode read abundance (log10)” value stood at 0.0336.

Take “AACTGATCTTGGGTTCTAACCTGTTGCCT (site AACTAATCTAG)”: the “recombinant barcode read abundance (log10)” value amounted to 0.0976.

Regarding “AACTGATCTTGGGTTCTAACCTGTTGCCT (site AACTCATCTAG)”, the “recombinant barcode read abundance (log10)” value was 0.0693.

For the sequence “AACTGATCTTGGGTTCTAACCTGTTGCCT (site AACTGATCTAG)”, the “recombinant barcode read abundance (log10)” value turned out to be 0.397.

Regarding “AACTGATCTTGGGTTCTAACCTGTTGCCT (site AACTTATCTAG)”, the “recombinant barcode read abundance (log10)” value worked out at 0.038.

Turning to “AACTGGGCTTGGGTTCTAACCTGTTGCCT (site AACTGGGCTAG)”, the “recombinant barcode read abundance (log10)” value came out at 0.252.

With “AACTGGGCTTGGGTTCTAACCTGTTGCCT (site ACCTGGGCTAG)”, the “recombinant barcode read abundance (log10)” value worked out at 0.149.

Take “AACTGGGCTTGGGTTCTAACCTGTTGCCT (site AGCTGGGCTAG)”: the “recombinant barcode read abundance (log10)” value is 0.0923.

Turning to “AACTGGGCTTGGGTTCTAACCTGTTGCCT (site ATCTGGGCTAG)”, the “recombinant barcode read abundance (log10)” value amounted to 0.141.

For “AACTGTCCTTGGGTTCTAACCTGTTGCAT (site AACTATCCTAT)”, the “recombinant barcode read abundance (log10)” value is 0.106.

Consider “AACTGTCCTTGGGTTCTAACCTGTTGCAT (site AACTCTCCTAT)”, for which the “recombinant barcode read abundance (log10)” value was determined as 0.0428.

Regarding “AACTGTCCTTGGGTTCTAACCTGTTGCAT (site AACTGTCCTAT)”, the “recombinant barcode read abundance (log10)” value was found to be 0.805.

As to “AACTGTCCTTGGGTTCTAACCTGTTGCAT (site AACTTTCCTAT)”, the “recombinant barcode read abundance (log10)” value was 0.106.

As to “AACTTAACTTGGGTTCTAACCTGTTGCCT (site AACTAAACTAG)”, the “recombinant barcode read abundance (log10)” value came out at 0.236.

On to “AACTTAACTTGGGTTCTAACCTGTTGCCT (site AACTCAACTAG)”, for which the “recombinant barcode read abundance (log10)” value was found to be 0.0571.

On to “AACTTAACTTGGGTTCTAACCTGTTGCCT (site AACTGAACTAG)”, for which the “recombinant barcode read abundance (log10)” value was 0.09.

As for “AACTTAACTTGGGTTCTAACCTGTTGCCT (site AACTTAACTAG)”, the “recombinant barcode read abundance (log10)” value came out at 0.531.

Turning to “AACTTCGCTTGGGTTCTAACCTGTTGCCT (site AACTTCACTAG)”, the “recombinant barcode read abundance (log10)” value came to 0.114.

Turning to “AACTTCGCTTGGGTTCTAACCTGTTGCCT (site AACTTCCCTAG)”, the “recombinant barcode read abundance (log10)” value came to 0.00931.

Consider “AACTTCGCTTGGGTTCTAACCTGTTGCCT (site AACTTCGCTAG)”, for which the “recombinant barcode read abundance (log10)” value is 0.423.

Take “AACTTCGCTTGGGTTCTAACCTGTTGCCT (site AACTTCTCTAG)”: the “recombinant barcode read abundance (log10)” value was determined as 0.269.

As to “AACTTGACTTGGGTTCTAACCTGTTGCCT (site AAATTGACTAG)”, the “recombinant barcode read abundance (log10)” value worked out at 0.248.

“AACTTGACTTGGGTTCTAACCTGTTGCCT (site AACTTGACTAG)”: the “recombinant barcode read abundance (log10)” value worked out at 0.731.

With “AACTTGACTTGGGTTCTAACCTGTTGCCT (site AAGTTGACTAG)”, the “recombinant barcode read abundance (log10)” value amounted to 0.0706.

Take “AACTTGACTTGGGTTCTAACCTGTTGCCT (site AATTTGACTAG)”: the “recombinant barcode read abundance (log10)” value is 0.232.

In the case of “AAGAACTCTTGGGTTCTAACCTGTTGCCG (site AAGAACTCTCG)”, the “recombinant barcode read abundance (log10)” value stood at 2.1.

On to “AAGAACTCTTGGGTTCTAACCTGTTGCCG (site GTTTCAACTAC)”, for which the “recombinant barcode read abundance (log10)” value came to 0.0172.

As for “AAGATACCTTGGGTTCTAACCTGTTGCTG (site AAGATACCTAA)”, the “recombinant barcode read abundance (log10)” value was 0.283.

For “AAGATACCTTGGGTTCTAACCTGTTGCTG (site AAGATACCTCA)”, the “recombinant barcode read abundance (log10)” value stood at 1.76.

Regarding “AAGATATCTTGGGTTCTAACCTGTTGCCT (site AAGATATCTAG)”, the “recombinant barcode read abundance (log10)” value came out at 1.86.

As to “AAGATATCTTGGGTTCTAACCTGTTGCCT (site ACGATATCTAG)”, the “recombinant barcode read abundance (log10)” value was 0.119.

“AAGATATCTTGGGTTCTAACCTGTTGCCT (site AGGATATCTAG)”: the “recombinant barcode read abundance (log10)” value amounted to 0.

As for “AAGATATCTTGGGTTCTAACCTGTTGCCT (site ATGATATCTAG)”, the “recombinant barcode read abundance (log10)” value was determined as 0.0647.

Regarding “AAGCACCCTTGGGTTCTAACCTGTTGCAG (site AAGCACCCTCT)”, the “recombinant barcode read abundance (log10)” value was 2.59.

Take “AAGCACCCTTGGGTTCTAACCTGTTGCAG (site TAGCACTCTCT)”: the “recombinant barcode read abundance (log10)” value was 0.311.

Regarding “AAGCACCCTTGGGTTCTAACCTGTTGCTG (site AAGCACCCTCA)”, the “recombinant barcode read abundance (log10)” value was 2.02.

For “AAGCACCCTTGGGTTCTAACCTGTTGCTG (site CCTGCGACTGT)”, the “recombinant barcode read abundance (log10)” value was found to be 0.276.

“AAGCCTACTTGGGTTCTAACCTGTTGCTA (site AAGCCTACTTA)”: the “recombinant barcode read abundance (log10)” value is 1.27.

Regarding “AAGCCTACTTGGGTTCTAACCTGTTGCTA (site GAGCCTACTTA)”, the “recombinant barcode read abundance (log10)” value is 0.0396.

“AAGGCCTCTTGGGTTCTAACCTGTTGCAT (site AAGGCCTCTAT)”: the “recombinant barcode read abundance (log10)” value was determined as 2.93.

As to “AAGGCCTCTTGGGTTCTAACCTGTTGCAT (site AAGGCCTCTTG)”, the “recombinant barcode read abundance (log10)” value is 0.247.

As to “AAGGCTACTTGGGTTCTAACCTGTTGCCT (site AAGGCTACTAG)”, the “recombinant barcode read abundance (log10)” value is 0.304.

Consider “AAGGCTACTTGGGTTCTAACCTGTTGCCT (site AAGGCTTCTAG)”, for which the “recombinant barcode read abundance (log10)” value stood at 0.144.

On to “AAGGTACCTTGGGTTCTAACCTGTTGCGG (site AAGGTACCTCC)”, for which the “recombinant barcode read abundance (log10)” value was determined as 2.69.

As to “AAGGTACCTTGGGTTCTAACCTGTTGCGG (site GTCACTACTAT)”, the “recombinant barcode read abundance (log10)” value was 0.0994.

Consider “AAGGTCACTTGGGTTCTAACCTGTTGCCT (site AAGGTCACTAG)”, for which the “recombinant barcode read abundance (log10)” value was determined as 2.24.

As for “AAGGTCACTTGGGTTCTAACCTGTTGCCT (site ACGGTCACTAG)”, the “recombinant barcode read abundance (log10)” value turned out to be 0.816.

For the sequence “AAGGTCACTTGGGTTCTAACCTGTTGCCT (site AGGGTCACTAG)”, the “recombinant barcode read abundance (log10)” value worked out at 0.0802.

On to “AAGGTCACTTGGGTTCTAACCTGTTGCCT (site ATGGTCACTAG)”, for which the “recombinant barcode read abundance (log10)” value was found to be 0.361.

In the case of “AAGGTCACTTGGGTTCTAACCTGTTGCTG (site AAGGTCACTCA)”, the “recombinant barcode read abundance (log10)” value stood at 2.52.

With “AAGGTCACTTGGGTTCTAACCTGTTGCTG (site GTACATCCTAC)”, the “recombinant barcode read abundance (log10)” value is 0.0968.

In the case of “AAGTCCACTTGGGTTCTAACCTGTTGCCT (site AAGTCCACTAG)”, the “recombinant barcode read abundance (log10)” value came out at 0.934.

As to “AAGTCCACTTGGGTTCTAACCTGTTGCCT (site ATTTCCACTAG)”, the “recombinant barcode read abundance (log10)” value amounted to 0.027.

The record behind these values is the supplement of paper PMC11208160.
